Results published in article PMC5382271, “The conserved protein Seb1 drives transcription termination by binding RNA polymerase II and nascent RNA” (Nature Communications, 2017).

Assays:
Parameters in all cases: species or system S. pombe
[1] = system: Seb1 SUMO-RRM388-540 F445A; experiment: FA, SUMO-RRM F445A binding to RNA; conditions: for effect on RNA binding, F445A: FA, SUMO-RRM388-540 F445A vs WT (Fig. 3e)
Method: (§1) Recombinant WT and mutated RRM388−540 of Seb1 with an N-terminal His6-SUMO tag were expressed from modified pOPINS3C expression vector[69] in pLysS E. coli strain. For FA assays, protein eluted from NiNTA was further purified on a HiLoad 16/60 Superdex 200 prep grade column (GE Healthcare) using an ÄKTA purifier (GE Healthcare) in 50 mM Tris pH 8.0 and 200 mM NaCl, and fractions containing the Seb1-RRM388−540 concentrated to ∼5 mg ml^−1. For crystallization and SAXS, the NiNTA eluted fractions were buffer exchanged into 50 mM Tris pH 7.5, 300 mM NaCl and 500 mM NDSB-201 using a PD-10 column (GE Healthcare) and cleaved with 3C protease (Sigma-Aldrich) at room temperature overnight. His6-SUMO tag was removed using NiNTA beads and the cleaved RRM388−540 was further purified on a Superdex 75 10/100 GL column (GE Healthcare) in 20 mM HEPES pH 7.3, 150 mM NaCl and 500 mM NDSB-201. For crystallization trials, the eluted protein was concentrated to ∼8.7 mg ml^−1, for SAXS to ∼5 mg ml^−1.
(§2) For Seb1-CID1–152, binding to 75 nM of two-repeat CTD peptides containing an N-terminal 5′-fluorescein amidite (FAM)-tag (Peptides&elephants, Potsdam, Germany) was determined in 25 mM HEPES pH 7.3, 200 mM NaCl and 1 mM EDTA. For RRM388–540, binding was determined to 40 nM FAM-AUUAGUAAAA RNA (Eurofins) in 25 mM Tris-HCl pH 8.0, 100 mM NaCl, 2 mM MgCl2, 1 mM DTT, 16.7% (v/v) glycerol, 0.1% IGEPAL, 0.1 mg ml^−1 tRNA and 2.5% (v/v) RNasin (Promega). Excitation of the ligand was performed with linearly polarized light at 485 nm and emission was measured at 520 nm in parallel and perpendicular planes to the emission plane at 25 °C using a FLUOstar-Omega microplate reader (BMG-Labtech). All measurements were performed in at least duplicates, results were plotted against the protein concentration and Kd values were determined via curve fitting as described in ref. [70].

[2] = system: Seb1 SUMO-RRM388-540 S492A; experiment: FA, SUMO-RRM S492A binding to RNA; conditions: SUMO-RRM388-540 S492A vs WT (Fig. 3e)
Method: as §1, with “His6-SUMO tag was removed using NiNTA beads and the cleaved RRM388−540 was further purified on a Superdex 75 10/100 GL column (GE Healthcare) in 20 mM HEPES pH 7.3, 150 mM NaCl and 500 mM NDSB-201. For crystallization trials, the eluted protein was concentrated to ∼8.7 mg ml^−1, for SAXS to ∼5 mg ml^−1.” left out
as §2, with “All measurements were performed in at least duplicates, results were plotted against the protein concentration and Kd values were determined via curve fitting as described in ref. [70].” left out

[3] = system: Seb1 SUMO-RRM388-540 F487A; experiment: FA, SUMO-RRM F487A binding to RNA; conditions: SUMO-RRM388-540 F487A vs WT (Fig. 3e)
Method: as §1, with “His6-SUMO tag was removed using NiNTA beads and the cleaved RRM388−540 was further purified on a Superdex 75 10/100 GL column (GE Healthcare) in 20 mM HEPES pH 7.3, 150 mM NaCl and 500 mM NDSB-201. For crystallization trials, the eluted protein was concentrated to ∼8.7 mg ml^−1, for SAXS to ∼5 mg ml^−1.” left out
as §2, with “All measurements were performed in at least duplicates, results were plotted against the protein concentration and Kd values were determined via curve fitting as described in ref. [70].” left out

[4] = system: Seb1 SUMO-RRM388-540 R472E; experiment: FA, SUMO-RRM R472E binding to RNA; conditions: SUMO-RRM388-540 R472E vs WT (Fig. 3e)
Method: as §1, with “His6-SUMO tag was removed using NiNTA beads and the cleaved RRM388−540 was further purified on a Superdex 75 10/100 GL column (GE Healthcare) in 20 mM HEPES pH 7.3, 150 mM NaCl and 500 mM NDSB-201. For crystallization trials, the eluted protein was concentrated to ∼8.7 mg ml^−1, for SAXS to ∼5 mg ml^−1.” left out
as §2, with “All measurements were performed in at least duplicates, results were plotted against the protein concentration and Kd values were determined via curve fitting as described in ref. [70].” left out

**Q.** With “AUUAGUAAAA (chemistry not fully specified) [RNA: AUUAGUAAAA]” as the sequence, how does the “effect on RNA binding, F445A” value ([1]; listed as FAM-labelled 10 nt-RNA) read?
**A.** The value was “completely abolishes RNA binding”.

**Q.** And the “effect on RNA binding, F445A” value ([1]; listed as RNA)?
**A.** The value was “abolishes the interaction completely”.

**Q.** What about the Kd ([1]; fluorescence anisotropy, SUMO-RRM F445A, 40 nM FAM-RNA, Tris-HCl pH 8.0, 100 mM NaCl, 2 mM MgCl2, 25 °C, three technical replicates) of the same sequence?
**A.** The Kd was over 1 mM.

**Q.** And the “effect on RNA binding, S492A” value [2]?
**A.** The value was “only a mild effect on binding”.

**Q.** And the “effect on affinity to RNA, F487A” value [3]?
**A.** Its value is “severely reduces the affinity to RNA”.

**Q.** And the “effect on RNA binding, R472E” value [4]?
**A.** The value was “completely abolishes RNA binding”.
